# Experimental data as given in PubChem BioAssay AID2060884 (Molecular Pharmacology Branch, DTP, NCI, 2025).
# System: NCI-H929 complex spheroids, viability % test/control
# Assay: Anticancer human tumor NCI-H929 cell line growth inhibition [RAS];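 also: compound exposure lasted seven days before viability was read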;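 as to viability, T/C: 100% = DMSO vehicle control viability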
# Settings: for IC50: curve of first compound; for viability, T/C: stronger effect = lower value
# Procedure, shortened: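 Multi-cell-type spheroids: tumor cells plus HUVEC endothelial cells and mesenchymal stem cells. RAS-pathway inhibitors were combined with targeted agents, each dosed in half-log steps down from clinical Cmax, or from 10 microM when Cmax was unknown.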
# [1] = second compound 0.0316 µM, first compound 0.0316 µM
# [2] = second compound 0.0316 µM, first compound 0.1 µM
# [3] = second compound 0.0316 µM, first compound 0.316 µM
# [4] = second compound 0.0316 µM, first compound 1 µM
# [5] = second compound 0.0316 µM, first compound 3.16 µM
# [6] = second compound 0.0316 µM, first compound 10 µM
# [7] = second compound 0.1 µM, first compound 0.0316 µM
# [8] = second compound 0.1 µM, first compound 0.1 µM
# [9] = second compound 0.1 µM, first compound 0.316 µM
# [10] = second compound 0.1 µM, first compound 1 µM
# [11] = second compound 0.1 µM, first compound 3.16 µM
# [12] = second compound 0.1 µM, first compound 10 µM
# [13] = second compound 0.316 µM, first compound 0.0316 µM
# [14] = second compound 0.316 µM, first compound 0.1 µM
# [15] = second compound 0.316 µM, first compound 0.316 µM
# [16] = second compound 0.316 µM, first compound 1 µM
# [17] = second compound 0.316 µM, first compound 3.16 µM
# [18] = second compound 0.316 µM, first compound 10 µM
# [19] = second compound 1 µM, first compound 0.0316 µM
# [20] = second compound 1 µM, first compound 0.1 µM
# [21] = second compound 1 µM, first compound 0.316 µM
# [22] = second compound 1 µM, first compound 1 µM
# [23] = second compound 1 µM, first compound 3.16 µM
# [24] = second compound 1 µM, first compound 10 µM
# [25] = second compound 3.16 µM, first compound 0.0316 µM
# [26] = second compound 3.16 µM, first compound 0.1 µM
# [27] = second compound 3.16 µM, first compound 0.316 µM
# [28] = second compound 3.16 µM, first compound 1 µM
# [29] = second compound 3.16 µM, first compound 3.16 µM
# [30] = second compound 3.16 µM, first compound 10 µM
# [31] = second compound 10 µM, first compound 0.0316 µM
# [32] = second compound 10 µM, first compound 0.1 µM
# [33] = second compound 10 µM, first compound 0.316 µM
# [34] = second compound 10 µM, first compound 1 µM
# [35] = second compound 10 µM, first compound 3.16 µM
# [36] = second compound 10 µM, first compound 10 µM
compound,measurement,setting,value
CC(=O)OC12COC1CC(O)C1(C)C(=O)C(O)C3=C(C)C(OC(=O)C(O)C(NC(=O)OC(C)(C)C)c4ccccc4)CC(O)(C(OC(=O)c4ccccc4)C21)C3(C)C (stereo unspecified) + C#Cc1c(F)ccc2cc(O)cc(-c3ncc4c(N5CC6CCC(C5)N6)nc(OCC56CCCN5CC(F)C6)nc4c3F)c12,IC50,second compound 0.0316 µM,< 31.6 nM
same,IC50,second compound 0.1 µM,< 31.6 nM
same,IC50,second compound 0.316 µM,< 31.6 nM
same,IC50,second compound 1 µM,< 31.6 nM
same,IC50,second compound 3.16 µM,< 31.6 nM
same,IC50,second compound 10 µM,< 31.6 nM
same,"viability, T/C",[1],0.76%
same,"viability, T/C",[2],1.3%
same,"viability, T/C",[3],1.24%
same,"viability, T/C",[4],1.01%
same,"viability, T/C",[5],1.67%
same,"viability, T/C",[6],0.89%
same,"viability, T/C",[7],1.76%
same,"viability, T/C",[8],0.93%
same,"viability, T/C",[9],1.5%
same,"viability, T/C",[10],1.51%
same,"viability, T/C",[11],1.27%
same,"viability, T/C",[12],0.89%
same,"viability, T/C",[13],1.1%
same,"viability, T/C",[14],0.78%
same,"viability, T/C",[15],1.16%
same,"viability, T/C",[16],1.88%
same,"viability, T/C",[17],1.5%
same,"viability, T/C",[18],0.79%
same,"viability, T/C",[19],1.5%
same,"viability, T/C",[20],0.8%
same,"viability, T/C",[21],1.05%
same,"viability, T/C",[22],2.04%
same,"viability, T/C",[23],1.33%
same,"viability, T/C",[24],0.88%
same,"viability, T/C",[25],1.91%
same,"viability, T/C",[26],0.99%
same,"viability, T/C",[27],1.37%
same,"viability, T/C",[28],0.71%
same,"viability, T/C",[29],1.08%
same,"viability, T/C",[30],0.76%
same,"viability, T/C",[31],1.78%
same,"viability, T/C",[32],0.88%
same,"viability, T/C",[33],1.86%
same,"viability, T/C",[34],1.55%
same,"viability, T/C",[35],1.23%
same,"viability, T/C",[36],0.77%
NC1c2ccccc2OC12CCN(c1cnc3c(N4CCCc5ncccc54)n[nH]c3n1)CC2 (stereo unspecified) + C#Cc1c(F)ccc2cc(O)cc(-c3ncc4c(N5CC6CCC(C5)N6)nc(OCC56CCCN5CC(F)C6)nc4c3F)c12,IC50,second compound 0.0316 µM,> 10000 nM
same,IC50,second compound 0.1 µM,> 10000 nM
same,IC50,second compound 0.316 µM,> 10000 nM
same,IC50,second compound 1 µM,> 10000 nM
same,IC50,second compound 3.16 µM,> 10000 nM
same,IC50,second compound 10 µM,> 10000 nM
same,"viability, T/C",[1],100%
same,"viability, T/C",[2],91.8%
same,"viability, T/C",[3],104%
same,"viability, T/C",[4],100%
same,"viability, T/C",[5],104%
same,"viability, T/C",[6],70.2%
same,"viability, T/C",[7],95.9%
same,"viability, T/C",[8],98%
same,"viability, T/C",[9],101%
same,"viability, T/C",[10],101%
same,"viability, T/C",[11],105%
same,"viability, T/C",[12],64.8%
same,"viability, T/C",[13],99.2%
same,"viability, T/C",[14],97.4%
same,"viability, T/C",[15],105%
same,"viability, T/C",[16],99.8%
same,"viability, T/C",[17],104%
same,"viability, T/C",[18],67.8%
same,"viability, T/C",[19],98.3%
same,"viability, T/C",[20],96.5%
same,"viability, T/C",[21],106%
same,"viability, T/C",[22],106%
same,"viability, T/C",[23],99.7%
same,"viability, T/C",[24],67.2%
same,"viability, T/C",[25],96.3%
same,"viability, T/C",[26],98.7%
same,"viability, T/C",[27],99%
same,"viability, T/C",[28],101%
same,"viability, T/C",[29],103%
same,"viability, T/C",[30],59.5%
same,"viability, T/C",[31],95.9%
same,"viability, T/C",[32],94.7%
same,"viability, T/C",[33],98.6%
same,"viability, T/C",[34],97.3%
same,"viability, T/C",[35],82.1%
same,"viability, T/C",[36],53.6%
Nc1ccn(C2OC(CO)C(O)C2(F)F)c(=O)n1 (stereo unspecified) + C#Cc1c(F)ccc2cc(O)cc(-c3ncc4c(N5CC6CCC(C5)N6)nc(OCC56CCCN5CC(F)C6)nc4c3F)c12,IC50,second compound 0.0316 µM,18.2 nM
same,IC50,second compound 0.1 µM,18.5 nM
same,IC50,second compound 0.316 µM,18.5 nM
same,IC50,second compound 1 µM,18.1 nM
same,IC50,second compound 3.16 µM,18.5 nM
same,IC50,second compound 10 µM,17.8 nM
same,"viability, T/C","second compound 0.0316 µM, first compound 0.00316 µM",97.9%
same,"viability, T/C","second compound 0.0316 µM, first compound 0.01 µM",106%
same,"viability, T/C",[1],1.73%
same,"viability, T/C",[2],1.71%
same,"viability, T/C",[3],1.77%
same,"viability, T/C",[4],0.97%
same,"viability, T/C","second compound 0.1 µM, first compound 0.00316 µM",99.5%
same,"viability, T/C","second compound 0.1 µM, first compound 0.01 µM",111%
same,"viability, T/C",[7],2.14%
same,"viability, T/C",[8],1.9%
same,"viability, T/C",[9],0.95%
same,"viability, T/C",[10],1.51%
same,"viability, T/C","second compound 0.316 µM, first compound 0.00316 µM",102%
same,"viability, T/C","second compound 0.316 µM, first compound 0.01 µM",106%
same,"viability, T/C",[13],2.97%
same,"viability, T/C",[14],2.03%
same,"viability, T/C",[15],1.39%
same,"viability, T/C",[16],1.19%
same,"viability, T/C","second compound 1 µM, first compound 0.00316 µM",97.4%
same,"viability, T/C","second compound 1 µM, first compound 0.01 µM",105%
same,"viability, T/C",[19],1.48%
same,"viability, T/C",[20],1.24%
same,"viability, T/C",[21],0.95%
same,"viability, T/C",[22],0.85%
same,"viability, T/C","second compound 3.16 µM, first compound 0.00316 µM",97.4%
same,"viability, T/C","second compound 3.16 µM, first compound 0.01 µM",108%
same,"viability, T/C",[25],3.7%
same,"viability, T/C",[26],1.57%
same,"viability, T/C",[27],1.67%
same,"viability, T/C",[28],1.18%
same,"viability, T/C","second compound 10 µM, first compound 0.00316 µM",102%
same,"viability, T/C","second compound 10 µM, first compound 0.01 µM",97.2%
same,"viability, T/C",[31],2.56%
same,"viability, T/C",[32],1.28%
same,"viability, T/C",[33],1.24%
same,"viability, T/C",[34],0.87%
